Measured values from patent publication US11208696B2, “Prognostic biomarkers for TTK inhibitor chemotherapy” (NETHERLANDS TRANSLATIONAL RESEARCH CENTER B.V., priority 2015, dated 2021).

Legend:
[1] = system: HCT116 cells; assay: Proliferation assay with isogenic cell line pair: parental HCT116 (S45del/+) and isogenic derivative lacking mutated CTNNB1; type: cell-based, human; details: for Δefficacy: difference in maximum percentage effect, isogenic (−/+) versus parental HCT116 (S45del/+), negative = parental more sensitive
[2] = system: CTNNB1-mutant cancer cell lines (A427, LS 174T, HCT116, SW48); assay: Cell proliferation assays, panel of sixty-six cancer cell lines: CTNNB1-mutant cell lines; type: cell-based, human

SMILES	Δefficacy [1]	ΔpIC50 [2]	IC50 ([2]; Homo sapiens, 120 h, read-out: pIC50 average Mutant (converted)) [nM]	ΔpIC50 [1]
COc1ccc(Oc2cc(NCC3CCOCC3)c3ncc(-c4ccc(C(=O)NC5CC5)c(C)c4)n3n2)c(F)c1F [Example 5, N-cyclopropyl-4-[6-(2,3-difluoro-4-methoxy-phenoxy)-8-(tetrahydropyran-4-ylmethylamino)imidazo[1,2-b]pyridazin-3-yl]-2-methyl-benzamide, reference compound]	−26	–	–	–
COc1cc(C(=O)NC2CCOCC2)ccc1Nc1ncc2c(n1)-n1ccc(C(=O)Nc3c(C)cccc3C)c1CC2 [Example 8, N-(2,6-dimethylphenyl)-2-[2-methoxy-4-(tetrahydropyran-4-ylcarbamoyl)anilino]-5,6-dihydropyrimido[4,5-e]indolizine-7-carboxamide]	−11	−0.57	11	−0.29
CCc1n[nH]c(CC)c1NC(=O)c1ccn2c1CCc1cnc(Nc3ccc(N4CCN(C)CC4)cc3OC(F)F)nc1-2 [Example 12, N-(3,5-diethyl-1H-pyrazol-4-yl)-2-[2-(difluoromethoxy)-4-(4-methylpiperazin-1-yl)anilino]-5,6-dihydropyrimido[4,5-e]indolizine-7-carboxamide]	−18	–	–	–
COCC(=O)N1CCN(c2ccc(Nc3ncc4c(n3)-n3ccc(C(=O)Nc5c(C)cccc5C)c3CC4)c(OC)c2)CC1 [Example 17, N-(2,6-dimethylphenyl)-2-[2-methoxy-4-[4-(2-methoxyacetyl)piperazin-1-yl]anilino]-5,6-dihydropyrimido[4,5-e]indolizine-7-carboxamide]	−16	–	–	–
